Measurements from article PMC11876601 (Molecular Systems Biology, 2025).
Read-outs that look alike come from different tables or passages of the source.

Columns and labels:
Assay in all cases: cells
AsPC-1 [1] = tested on: AsPC-1; design: ATPlite luminescence viability of PDAC cell lines, 11-dose single-agent curves, 4-parameter fit; conditions: Homo sapiens, ASPC1, 72 h, read-out: EC50 [nM]
How it was run: (§1)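 Drug-combination screening used cells plated at 1000 to 5000 per well one day before treatment. Final DMSO was 0.2%. Each plate held untreated negative-control wells and 5 µM staurosporine positive-control wells.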

BxPC-3 [2] = tested on: BxPC-3; design: ATPlite luminescence viability of PDAC cell lines, 11-dose single-agent curves, 4-parameter fit; conditions: Homo sapiens, BXPC-3, 72 h, read-out: EC50 [nM]
How it was run: as §1

Dan-G [3] = tested on: Dan-G; design: ATPlite luminescence viability of PDAC cell lines, 11-dose single-agent curves, 4-parameter fit; conditions: 72 h, read-out: EC50 [nM]
How it was run: as §1

FAMPAC [4] = tested on: FAMPAC; design: ATPlite luminescence viability of PDAC cell lines, 11-dose single-agent curves, 4-parameter fit; conditions: 72 h, read-out: EC50 [nM]
How it was run: as §1

MiaPaCa-2 [5] = tested on: MiaPaCa-2; design: ATPlite luminescence viability of PDAC cell lines, 11-dose single-agent curves, 4-parameter fit; conditions: Homo sapiens, MIA PaCa-2, 72 h, read-out: EC50 [nM]
How it was run: as §1

PSN-1 [6] = tested on: PSN-1; design: ATPlite luminescence viability of PDAC cell lines, 11-dose single-agent curves, 4-parameter fit; conditions: Homo sapiens, PSN1, 72 h, read-out: EC50 [nM]
How it was run: as §1

PaTu-8988-T [7] = tested on: PaTu-8988-T; design: ATPlite luminescence viability of PDAC cell lines, 11-dose single-agent curves, 4-parameter fit; conditions: Homo sapiens, PaTu 8988t, 72 h, read-out: EC50 [nM]
How it was run: as §1

Suit2-07 [8] = tested on: Suit2-07; design: ATPlite luminescence viability of PDAC cell lines, 11-dose single-agent curves, 4-parameter fit; conditions: 72 h, read-out: EC50 [nM]
How it was run: as §1

Capan-1 = tested on: Capan-1; design: Viability of PDAC cell lines, ATPlite luminescence, 11-dose single-agent curve fit; conditions: Homo sapiens, CAPAN-1, 72 h, read-out: EC50 [nM]
How it was run: (§2)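 screening used cells plated at 1000 to 5000 per well one day before treatment. Final DMSO was 0.2%. Each plate held untreated negative-control wells and 5 µM staurosporine positive-control wells.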

Colo-357 [9] = tested on: Colo-357; design: Viability of PDAC cell lines, ATPlite luminescence, 11-dose single-agent curve fit; conditions: Homo sapiens, COLO357, 72 h, read-out: EC50 [nM]
How it was run: as §2

HPDE [10] = tested on: HPDE; design: Viability of PDAC cell lines, ATPlite luminescence, 11-dose single-agent curve fit; conditions: HPDE, 72 h, read-out: EC50 [nM]
How it was run: as §2

HuP-T4 = tested on: HuP-T4; design: Viability of PDAC cell lines, ATPlite luminescence, 11-dose single-agent curve fit; conditions: Homo sapiens, HuP-T4, 72 h, read-out: EC50 [nM]
How it was run: as §2

PANC-1 = tested on: PANC-1; design: Viability of PDAC cell lines, ATPlite luminescence, 11-dose single-agent curve fit; conditions: Homo sapiens, PANC-1, 72 h, read-out: EC50 [nM]
How it was run: as §2

Dan-G [11] = tested on: Dan-G; design: Viability of PDAC cell lines, ATPlite luminescence, 11-dose single-agent curve fit; conditions: 72 h, read-out: EC50 [nM]
How it was run: as §2

PaTu-8988-T [12] = tested on: PaTu-8988-T; design: Viability of PDAC cell lines, ATPlite luminescence, 11-dose single-agent curve fit; conditions: Homo sapiens, PaTu 8988t, 72 h, read-out: EC50 [nM]
How it was run: as §2

Suit2-07 [13] = tested on: Suit2-07; design: Viability of PDAC cell lines, ATPlite luminescence, 11-dose single-agent curve fit; conditions: 72 h, read-out: EC50 [nM]
How it was run: as §2

Colo-357 [14] = tested on: Colo-357; design: ATPlite luminescence viability of PDAC cell lines, 11-dose single-agent curves, 4-parameter fit; conditions: Homo sapiens, COLO357, 72 h, read-out: EC50 [nM]
How it was run: as §1

AsPC-1 [15] = tested on: AsPC-1; design: Viability of PDAC cell lines, ATPlite luminescence, 11-dose single-agent curve fit; conditions: Homo sapiens, ASPC1, 72 h, read-out: EC50 [nM]
How it was run: as §2

BxPC-3 [16] = tested on: BxPC-3; design: Viability of PDAC cell lines, ATPlite luminescence, 11-dose single-agent curve fit; conditions: Homo sapiens, BXPC-3, 72 h, read-out: EC50 [nM]
How it was run: as §2

FAMPAC [17] = tested on: FAMPAC; design: Viability of PDAC cell lines, ATPlite luminescence, 11-dose single-agent curve fit; conditions: 72 h, read-out: EC50 [nM]
How it was run: as §2

MiaPaCa-2 [18] = tested on: MiaPaCa-2; design: Viability of PDAC cell lines, ATPlite luminescence, 11-dose single-agent curve fit; conditions: Homo sapiens, MIA PaCa-2, 72 h, read-out: EC50 [nM]
How it was run: as §2

PSN-1 [19] = tested on: PSN-1; design: Viability of PDAC cell lines, ATPlite luminescence, 11-dose single-agent curve fit; conditions: Homo sapiens, PSN1, 72 h, read-out: EC50 [nM]
How it was run: as §2

HPDE [20] = tested on: HPDE; design: ATPlite luminescence viability of PDAC cell lines, 11-dose single-agent curves, 4-parameter fit; conditions: HPDE, 72 h, read-out: EC50 [nM]
How it was run: as §1

## COC(=O)c1ccc2c(c1)NC(=O)/C2=C(\Nc1ccc(N(C)C(=O)CN2CCN(C)CC2)cc1)c1ccccc1 [Nintedanib]
AsPC-1 [1]
  EC50: > 10000 nM
BxPC-3 [2]
  EC50: 4940 nM
Dan-G [3]
  EC50: 6960 nM
FAMPAC [4]
  EC50: > 10000 nM
MiaPaCa-2 [5]
  EC50: 1030 nM
PSN-1 [6]
  EC50: 8030 nM
PaTu-8988-T [7]
  EC50: 6690 nM
Suit2-07 [8]
  EC50: > 10000 nM
Capan-1
  EC50: 10200 nM
Colo-357 [9]
  EC50: 9780 nM
HPDE [10]
  EC50: 1550 nM
HuP-T4
  EC50: 146 nM
PANC-1
  EC50: 77.7 nM

## Cn1cnc2c(F)c(Nc3ccc(Br)cc3Cl)c(C(=O)NOCCO)cc21 [Selumetinib]
AsPC-1 [1]
  EC50: 59.5 nM
BxPC-3 [2]
  EC50: 1360 nM
FAMPAC [4]
  EC50: 8370 nM
MiaPaCa-2 [5]
  EC50: 24.1 nM
PSN-1 [6]
  EC50: 229 nM
Capan-1
  EC50: 4670 nM
Colo-357 [9]
  EC50: 22.3 nM
Dan-G [11]
  EC50: 1490 nM
HPDE [10]
  EC50: 268 nM
HuP-T4
  EC50: 276 nM
PANC-1
  EC50: 87.4 nM
PaTu-8988-T [12]
  EC50: 94.7 nM
Suit2-07 [13]
  EC50: 451 nM

## CC(C)NC[C@@H](C(=O)N1CCN(c2ncnc3c2[C@H](C)C[C@H]3O)CC1)c1ccc(Cl)cc1 [Ipatasertib]
Colo-357 [14]
  EC50: 151 nM
Dan-G [3]
  EC50: 1150 nM
Suit2-07 [8]
  EC50: 3240 nM
AsPC-1 [15]
  EC50: 154 nM
BxPC-3 [16]
  EC50: 246 nM
Capan-1
  EC50: 4690 nM
FAMPAC [17]
  EC50: 642 nM
HPDE [10]
  EC50: 5290 nM
HuP-T4
  EC50: 310 nM
MiaPaCa-2 [18]
  EC50: 3940 nM
PANC-1
  EC50: > 10000 nM
PSN-1 [19]
  EC50: 7080 nM
PaTu-8988-T [12]
  EC50: 543 nM

## C=CC(=O)N1CCC[C@@H](n2nc(-c3ccc(Oc4ccccc4)cc3)c3c(N)ncnc32)C1 [Ibrutinib]
Dan-G [3]
  EC50: 56.6 nM
HPDE [20]
  EC50: 521 nM
AsPC-1 [15]
  EC50: 46.1 nM
BxPC-3 [16]
  EC50: 128 nM
Capan-1
  EC50: 317 nM
Colo-357 [9]
  EC50: 373 nM
FAMPAC [17]
  EC50: 28.3 nM
HuP-T4
  EC50: 54.2 nM
MiaPaCa-2 [18]
  EC50: 1840 nM
PANC-1
  EC50: 1170 nM
PSN-1 [19]
  EC50: 1100 nM
PaTu-8988-T [12]
  EC50: 166 nM
Suit2-07 [13]
  EC50: 396 nM
